row,SMILES,melting point [°C]
1,CC(C)CC(=O)NCCc1ccc(S(N)(=O)=O)s1,113 to 115
2,CC(C)(C)OC(=O)NC1CCN(c2ccc(C#N)cn2)CC1,188 to 190
3,Cn1cnnc1C1CCNCC1,181 to 183
4,O=C(O)Cc1csc(NC(=O)c2ccc(Br)o2)n1,214 to 216
5,CCc1ccc(S(C)(=O)=O)cc1C(=O)O,151 to 153
6,Clc1ncnc2c1CCCC2,79 to 81
7,Cc1cc([N+](=O)[O-])ccc1NC(=O)CCCl,147 to 149
8,Nc1cc(C2CCCCC2)no1,127 to 129
9,CC(NS(=O)(=O)Cc1ccc(CN)cc1)C(N)=O (stereo not drawn),140 to 142
10,CC(C)(C)OC(=O)NC1C2CCC(C2)C1C(=O)O (stereo not drawn),140 to 142
11,Cc1ccc2c(c1)C(=O)N(CCCC(=O)O)C2=O,239 to 241
12,Cc1nnc(S)n1CCS(C)(=O)=O,193 to 195
13,Cc1c(C(=O)NN)oc2ccccc12,139 to 141
14,Oc1ccc(-c2nc3ccccc3s2)cc1Cl,186 to 188
15,Cc1cc(Cl)ncc1O,168 to 170
16,Nc1nc(-c2ccccc2)no1,149 to 151
17,Cc1cn2nc(N)c3ccccc3c2n1,216 to 218
18,CNS(=O)(=O)c1ccc(/C=C/C(=O)O)cc1,259 to 261
19,Cn1cnc([N+](=O)[O-])c1Br,177 to 179

row,SMILES,melting point [°C]
1,O=C(O)c1occc1-c1ccc(F)cc1,147 to 149
2,O=C(O)C1(c2ccc(F)cc2)CCOCC1,156 to 158
3,CC(Sc1nnnn1C1CC1)C(=O)O (stereo not drawn),116 to 118
4,O=C(O)CCc1ccc2ccccc2n1,107 to 109
5,O=C(O)C=Cc1ccc(Cl)nc1,209 to 211
6,Cc1nn(-c2cncc3nnnn23)c(C)c1CC(=O)O,173 to 175
7,O=C(O)CN1CC(=O)Oc2ccccc21,176 to 178
8,N#Cc1ccc(SCCC(=O)O)cc1,86 to 88
9,O=C1CNC(=O)N1c1cccc([N+](=O)[O-])c1,164 to 166
10,O=C(O)c1cc(-c2cccc(Cl)c2)no1,182 to 184
11,CC(C)(C)OC(=O)N1CCc2ncc(N)cc2C1,116 to 118
12,O=C(O)Cc1ccc(-n2cnnn2)cc1,171 to 173
13,Cc1nc(-c2ccc(Br)cc2Cl)n[nH]1,179 to 181
14,Nc1c(I)cc(I)cc1I,187 to 189
15,N#CCCn1cc(C(=O)O)c(-c2ccc([N+](=O)[O-])cc2)n1,220 to 222
16,Cc1nc(S)nc(O)c1C,276 to 278
17,NCC1CC(O)CN1Cc1ccccc1 (stereo not drawn),54 to 56
18,Nc1ccccc1C(=O)NCCCN1CCOCC1,194 to 198
19,Nc1ccc(CN2C(=O)CNC2=O)cc1,168 to 170

row,SMILES,melting point [°C]
1,CNc1ccc([N+](=O)[O-])c(C)c1,90 to 92
2,CC(N)c1ccc(N2CCOCC2)cc1 (stereo not drawn),61 to 63
3,O=C(Nc1ccccc1CO)c1ccco1,95 to 97
4,Nc1cccc(-c2nccs2)c1,62 to 64
5,O=C(O)c1ccc(CS(=O)(=O)c2ccccc2)o1,180 to 182
6,O=C(O)c1cc(C2CC2)nc2ccc(F)cc12,196 to 198
7,Nc1ccc(S(=O)(=O)N2CCCC(C(=O)O)C2)cc1 (stereo not drawn),195 to 197
8,CN1CCN(C(=O)C2CCN(C(=O)OC(C)(C)C)CC2)CC1,95 to 97
9,O=C(O)C1CCCN(S(=O)(=O)Cc2ccccc2)C1 (stereo not drawn),128 to 130
10,C=CCn1c(S)nc2ccccc21,109 to 111
11,CCOC(=O)CSc1nnc(-c2cccs2)o1,53 to 55
12,O=c1c(Cl)c(Cl)c1=O,49 to 51
13,Cn1cc(C(=O)O)c(Cl)n1,209 to 211
14,Cc1ccc(-c2ccc(C(=O)O)c(F)c2)cc1,247 to 249
15,O=c1cc(CCl)c2ccc(O)cc2o1,135 to 137
16,CN1CCN(S(=O)(=O)c2cccc(C(=O)O)c2)CC1,230 to 232
17,CC(C)(C(=O)O)c1cccc(Cl)c1,65 to 67
18,Cn1cc[nH]c(=O)c1=O,207 to 209
19,Cc1nc(NN)c2c3c(sc2n1)CCC3,182 to 184

# Continued, values first:
row,melting point [°C],SMILES
1,142 to 144,NS(=O)(=O)Cc1ccc(Cl)nc1
2,79 to 81,Brc1cccc2cnoc12
3,105 to 107,Nc1nc2ccc(SC(F)F)cc2s1
4,77 to 79,Cc1cc(Br)ccc1N1CCCS1(=O)=O
5,82 to 84,Cc1cc(SC#N)cc(C)c1N
6,233 to 235,Nc1c(Cl)cc(Br)cc1C(=O)O
7,224 to 226,Cc1ccc(-n2nc(C(=O)O)c3c2CCC3)cc1
8,139 to 141,CNc1nc(-c2ccccc2[N+](=O)[O-])cs1
9,199 to 201,O=C(O)c1ccc(Cl)c2cccnc12
10,221 to 223,O=c1[nH]c(CO)nc2ccccc12
11,214 to 216,CCCc1c(C(=O)O)[nH]c(C)c1C(C)=O
12,104 to 106,N#Cc1c(N)sc2c1CCCCCC2
13,122 to 124,O=S1CCCNc2ccccc21 (stereo not drawn)
14,110 to 112,O=S(=O)(CCCl)c1ccc(Br)cc1
15,179 to 181,O=C(O)C1CC(=O)N(c2ccc3c(c2)CCC3)C1 (stereo not drawn)
16,39 to 41,CCOC(=O)c1sc(N(C)C)nc1C
17,108 to 110,Cc1csc(-c2cccc(O)c2)n1
18,73 to 75,CC(C)(C)OC(=O)NC1CC1(F)F (stereo not drawn)
19,176 to 178,Nc1cc(C(=O)O)ccc1OCC(F)(F)F
20,121 to 123,Cn1ccnc1Sc1ccccc1N
21,97 to 99,Nc1cccc(CS(=O)(=O)c2ccc(F)cc2F)c1
22,129 to 131,CC(C)(C)OC(=O)N1CC(=O)NC(=O)C1
23,61 to 63,Cc1ccc(C(C)C)c(OC(C)C(=O)O)c1 (stereo not drawn)

row,melting point [°C],SMILES
1,89 to 91,Cc1cc(C)n2nc(CCCO)nc2n1
2,140 to 142,COc1cc(C(=O)O)ccc1OC(C)C
3,57 to 59,Cc1cc(Cl)c(Cl)cc1[N+](=O)[O-]
4,67 to 69,Cc1cnc(C#N)nc1
5,188 to 190,O=C(O)c1cccnc1N1CCN(Cc2cccc(Cl)c2)CC1
6,166 to 168,CC(C)(C#N)NC(=O)c1ccccc1
7,114 to 116,CN(CC(=O)O)C(=O)c1ccc(Br)s1
8,159 to 161,Nc1cccc(CN2C(=O)CNC2=O)c1
9,297 to 299,N#Cc1ccc(-c2ccccc2)[nH]c1=O
10,116 to 118,CC(C)C(NC(=O)c1ccccc1F)C(=O)O (stereo not drawn)
11,45 to 47,CN(C)S(=O)(=O)c1cccc(CCl)c1
12,76 to 78,N#Cc1ccc(CN2CCc3ccccc32)cc1
13,102 to 104,O=[N+]([O-])c1ccccc1C(O)c1cccnc1 (stereo not drawn)
14,152 to 154,O=C(O)CNC(=O)c1ccccc1C(F)(F)F
15,131 to 133,CC(C)(C)OC(=O)N1CCN(c2ccc(N)nc2)CC1
16,30 to 32,Nc1nc2c(s1)CCCC2
17,52 to 54,CC(=O)c1ccoc1
18,144 to 146,CC(=O)c1cc([N+](=O)[O-])ccc1N
19,148 to 150,COC(=O)c1n[nH]c(C)c1Br
20,64 to 66,CC(C)=C(F)C(=O)O
21,259 to 261,Cc1sc2nc(CCl)[nH]c(=O)c2c1-c1ccccc1
22,169 to 171,O=C(O)CSc1nnc(-c2ccccc2)o1
23,97 to 99,CC(C)n1cnnc1-c1ccccc1N
